This passage reports inhibition of growth and IC50 results from ChEMBL document CHEMBL3217482, “Synthesis and biological evaluation of novel 1-aryl, 5-(phenoxy-substituted)aryl-1,4-pentadien-3-one derivatives” (Medchemcomm, 2011).

The subject of assay [1] is Bcap37. Put plainly: Antiproliferative against human Bcap37 cells assessed as growth inhibition at 10 uM after 72 hrs by MTT assay relative to control. It is filed as functional. To be noted: Bcap37, 72 h, read-out: GI.
Assay [2] concerns Bcap37. Put plainly: Antiproliferative against human Bcap37 cells assessed as growth inhibition at 1 uM after 72 hrs by MTT assay relative to control. It is filed as functional. The note with it: Bcap37, 72 h, read-out: GI. A general note: Formazan colour is commonly taken as a measure of viable cells.
Assay [3] in a line: Antiproliferative against human BGC823 cells assessed as growth inhibition at 10 uM after 72 hrs by MTT assay relative to control. It is filed as functional. To be noted: BGC-823, 72 h, read-out: GI.
For assay [4], the system named is PC-3. Put plainly: Antiproliferative against human PC3 cells assessed as growth inhibition at 10 uM after 72 hrs by MTT assay relative to control. It is filed as functional. To be noted: PC-3, 72 h, read-out: GI.
The nature of assay [5]: Antiproliferative against human BGC823 cells assessed as growth inhibition at 1 uM after 72 hrs by MTT assay relative to control. The format is functional. To be noted: BGC-823, 72 h, read-out: GI.
For assay [6], the system named is PC-3. The assay can be described thus: Antiproliferative against human PC3 cells assessed as growth inhibition at 1 uM after 72 hrs by MTT assay relative to control. It is filed as functional. The note with it: PC-3, 72 h, read-out: GI.
A short description of assay [7]: Antiproliferative against human BGC823 cells assessed as growth inhibition after 72 hrs by MTT assay. The format is functional, cell-based. To be noted: BGC-823, 72 h.
In assay [8] the test system is Bcap37. Put plainly: Antiproliferative against human Bcap37 cells assessed as growth inhibition after 72 hrs by MTT assay. It is filed as functional, cell-based. The note with it: Bcap37, 72 h.

pIC50: −log10 of the molar value.

As for `CC[C@@]1(O)C(=O)OCc2c1cc1n(c2=O)Cc2cc3cc(O)ccc3nc2-1` [HYDROXYCAMPTOTHECIN], the inhibition of growth at 10 µM in the assay on Bcap37 [1] was found to be 33.5%; in assay [3] it was 26.5%; with PC-3 [4], 37%. In addition, the results for the inhibition of growth at 1 µM (in the assay with Bcap37 [2]; in assay [5]; with PC-3 [6]) were 8.8%, 7.3% and 17.1%, respectively.

As for `COc1cccc2c1C(=O)c1c(O)c3c(c(O)c1C2=O)C[C@@](O)(C(=O)CO)C[C@@H]3O[C@H]1C[C@H](N)[C@H](O)[C@H](C)O1` [DOXORUBICIN], the pIC50 in assay [7] was 5.59; with Bcap37 [8], 5.70. In addition, the inhibition of growth at 10 µM is 93.1% in the assay with Bcap37 [1], 95.9% in assay [3] and 94.7% in the assay on PC-3 [4]. Besides, the inhibition of growth at 1 µM with Bcap37 [2] is 84.2%; in assay [5], 90.7%; with PC-3 [6], 88.2%.

One may read the pIC50 as −log10 of the IC50, conventionally taken in molar units.
